Source: PubChem BioAssay AID2060607 (Molecular Pharmacology Branch, DTP, NCI, 2025)
Several values for one entry are separate records, joined by “and”; a condition that tells them apart may be missing. Identical values can stand only once.

System: 876862-298-R-J1-PDC complex spheroids, viability % test/control
Experiment: Anticancer human tumor 876862-298-R-J1-PDC patient-derived endometrial carcinoma cell line growth inhibition [CLK]
Settings: for viability, T/C: stronger effect = lower value; active = viability on the fitted dose curve at most 10% of control; inactive = the rest
Excerpt: A high-throughput screen of multi-cell type tumor spheroids was designed to identify active combinations of […] and targeted small molecules. Complex spheroids include a stromal component modeled by human endothelial cells (HUVEC) and fibroblasts modeled by human mesenchymal stem cells (MSCs). The concentration ranges selected for each drug and investigational agent were based upon clinically achievable concentrations if the clinical Cmax of the agent was known.
Compounds. The drugs and investigational agents: cirtuvivint (SM08502; NSC835563), CC-671 (NSC850746), vemurafenib (NSC761431), tapotoclax (NSC804041), sotorasib (NSC818433), adagrasib (NSC831453), MRTX-1133 (NSC836407), BAY2416964 (NSC825713), copanlisib (NSC816437), inavolisib (NSC800729), abemaciclib (NSC768073), osimertinib (NSC779217), entinostat (NSC756642), eltanexor (KPT-8602, NSC794443), venetoclax (NSC766270), ceralasertib (NSC777638), bortezomib (NSC756655), olaparib (NSC753686), talazoparib (NSC767125), alisertib (NSC759677), peposertib (NSC802822), gemcitabine (NSC613327), 5-fluorouracil (NSC19893), SN-38 (NSC673596), oxaliplatin (NSC266046), paclitaxel (NSC125973), and doxorubicin (NSC123127), were obtained from the National Cancer Institute (NCI) Developmental Therapeutics Program Chemical Repository. The FDA-approved anticancer drug set is available from the Developmental Therapeutics Program at https://dtp.cancer.gov/organization/dscb/obtaining/available plates.htm. […] The stock solutions were prepared in dimethyl sulfoxide (DMSO, Sigma-Aldrich, St. Louis, MO, cat. D2650), except for the platinum complexes which were prepared in saline (Quality Biological, Gaithersburg, MD, cat. 114-055-101), at 800-fold the tested concentration and stored at -70 degrees C prior to their use. All drugs and investigational agents were tested over a range starting from a high concentration at or near the clinical Cmax and decreasing in half-log increments. If the clinical Cmax for an agent had not been determined, the highest concentration tested was 10 microM.
Cell Culture. All cells were maintained in an incubator at 37 degrees C and 5% CO2 with 95% humidity. The PDC lines were cultured according to standard operating procedures established by the NCI PDMR. Briefly, all PDCs were thawed and cultured in Matrigel-coated flasks prepared with a working solution of 1X Ham's F-12 nutrient mix, without supplementation (Invitrogen, Waltham, MA, cat. 11765054), 100 U/mL penicillin-streptomycin (Invitrogen, cat. 15140122), and 2.5% Matrigel (Corning Inc., Corning, NY, cat. 354248) for the first three passages. The 947758-054-R-J2-PDC line was cultured in 6B/Colon 1A media, which includes advanced DMEM/F-12 (Thermo Fisher Scientific, cat. 12634028), 10 mM HEPES (Thermo Fisher Scientific, cat. 15630080), 1X GlutaMAX supplement (Thermo Fisher Scientific, cat. 35050061), 0.1 mg/mL primocin (InvivoGen, cat. ant-pm-2), 10% defined fetal bovine serum, heat inactivated (HyClone Laboratories Inc., cat. SH30070.03HI), 1.25 mM N-Acetyl-L-cysteine (Sigma-Aldrich, cat. A9165), 10 mM nicotinamide (Sigma-Aldrich, cat. N0636), 1X B-27 supplement (Thermo Fisher Scientific, cat. 17504044), 1X N-2 supplement (Thermo Fisher Scientific, cat. 17502048), and 10 microM Y-27632 dihydrochloride (Tocris Bioscience, cat. 1254). The 876862-298-R-J1-PDC was cultured in 6E media, which includes all 6B/Colon 1A media components plus 50% L-WRN conditioned media (ATCC, cat. CRL-3276), 50 ng/mL recombinant human EGF recombinant protein (hEGF; Thermo Fisher Scientific, cat. PHG0311), 10 ng/mL recombinant human fibroblast growth factor 10 (hGFG-10; PeproTech, cat. 100-26), 1 ng/mL recombinant human fibroblast growth factor 2 (hFGF-2; PeproTech, cat. 100-18B), and 1 µM prostaglandin E2 (PGE2; Tocris, cat. 2296). The 227483-062-R1-J1-PDC line was cultured in Panc media, containing all 6E components except hFGF-2, with the addition of 500 nM SB-431542 (Selleckchem, cat. S1067) and 10 nM gastrin (Tocris, cat. 3006). […]

[1] = curve of first compound, second compound 0.0316 µM
[2] = curve of first compound, second compound 0.1 µM
[3] = curve of first compound, second compound 0.316 µM
[4] = curve of first compound, second compound 1 µM
[5] = curve of first compound, second compound 3.16 µM
[6] = curve of first compound, second compound 10 µM
[7] = second compound 0.0316 µM, first compound 0.0316 µM
[8] = second compound 0.0316 µM, first compound 0.1 µM
[9] = second compound 0.0316 µM, first compound 0.316 µM
[10] = second compound 0.0316 µM, first compound 1 µM
[11] = second compound 0.0316 µM, first compound 3.16 µM
[12] = second compound 0.0316 µM, first compound 10 µM
[13] = second compound 0.1 µM, first compound 0.0316 µM
[14] = second compound 0.1 µM, first compound 0.1 µM
[15] = second compound 0.1 µM, first compound 0.316 µM
[16] = second compound 0.1 µM, first compound 1 µM
[17] = second compound 0.1 µM, first compound 3.16 µM
[18] = second compound 0.1 µM, first compound 10 µM
[19] = second compound 0.316 µM, first compound 0.0316 µM
[20] = second compound 0.316 µM, first compound 0.1 µM
[21] = second compound 0.316 µM, first compound 0.316 µM
[22] = second compound 0.316 µM, first compound 1 µM
[23] = second compound 0.316 µM, first compound 3.16 µM
[24] = second compound 0.316 µM, first compound 10 µM
[25] = second compound 1 µM, first compound 0.0316 µM
[26] = second compound 1 µM, first compound 0.1 µM
[27] = second compound 1 µM, first compound 0.316 µM
[28] = second compound 1 µM, first compound 1 µM
[29] = second compound 1 µM, first compound 3.16 µM
[30] = second compound 1 µM, first compound 10 µM
[31] = second compound 3.16 µM, first compound 0.0316 µM
[32] = second compound 3.16 µM, first compound 0.1 µM
[33] = second compound 3.16 µM, first compound 0.316 µM
[34] = second compound 3.16 µM, first compound 1 µM
[35] = second compound 3.16 µM, first compound 3.16 µM
[36] = second compound 3.16 µM, first compound 10 µM
[37] = second compound 10 µM, first compound 0.0316 µM
[38] = second compound 10 µM, first compound 0.1 µM
[39] = second compound 10 µM, first compound 0.316 µM
[40] = second compound 10 µM, first compound 1 µM
[41] = second compound 10 µM, first compound 3.16 µM
[42] = second compound 10 µM, first compound 10 µM
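Note: spheroids exposed to drugs for 7 days before readout.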
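Throughout, for viability, T/C: 100% = DMSO vehicle control wells.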

C=C(F)C(=O)N1CCN(c2nc(OCC3CCCN3C)nc3c2CCN(c2cccc4cccc(Cl)c24)C3)CC1CC#N (stereo unspecified) + CNC(=O)c1ccc(Nc2nc(OC3CCCC3)c3c(-c4ccc5nc(C)oc5c4)c[nH]c3n2)c(OC)c1
< 31.6 nM: IC50 [2] | IC50 [3] | IC50 [4] | IC50 [5] | IC50 [6]
4840 nM: IC50 [1]
inactive: viability, T/C [7] 61.2% | viability, T/C [8] 84.6% | viability, T/C [9] 74.5% | viability, T/C [10] 84.6% | viability, T/C [11] 87.3% | viability, T/C [13] 47.9% | viability, T/C [14] 49.9% | viability, T/C [15] 47.5% | viability, T/C [16] 48.3% | viability, T/C [17] 38.8% | viability, T/C [19] 42.1% | viability, T/C [20] 39.7% | viability, T/C [21] 43.1% | viability, T/C [22] 39.1% | viability, T/C [23] 31.5% | viability, T/C [25] 33.1% | viability, T/C [26] 33.1% | viability, T/C [27] 32.6% | viability, T/C [28] 27.1% | viability, T/C [29] 27.6% | viability, T/C [31] 22.3% | viability, T/C [32] 24.6% | viability, T/C [33] 22.1% | viability, T/C [34] 21.8% | viability, T/C [35] 21.8% | viability, T/C [36] 0.16% | viability, T/C [37] 23.3% | viability, T/C [38] 22.4% | viability, T/C [39] 19.5% | viability, T/C [40] 21.6% | viability, T/C [41] 18.6%
active: viability, T/C [12] 1.29% | viability, T/C [18] 2.57% | viability, T/C [24] 1.59% | viability, T/C [30] 0.79% | viability, T/C [42] 0.21%

CC1COCCN1c1cc(C2(S(C)(=N)=O)CC2)nc(-c2ccnc3[nH]ccc23)n1 (stereo unspecified)
inactive: viability, T/C (compound 0.0316 µM) 110% and 102% | viability, T/C (compound 0.1 µM) 99.5% and 104% | viability, T/C (compound 0.316 µM) 89.4% and 94.8% | viability, T/C (compound 1 µM) 77.1% and 79.5% | viability, T/C (compound 3.16 µM) 55% and 44% | viability, T/C (compound 10 µM) 27% and 18.8%
3890 nM and 2620 nM: IC50 (curve of compound)

CC1(C)CCC(CN2CCN(c3ccc(C(=O)NS(=O)(=O)c4ccc(NCC5CCOCC5)c([N+](=O)[O-])c4)c(Oc4cnc5[nH]ccc5c4)c3)CC2)=C(c2ccc(Cl)cc2)C1 + CNC(=O)c1ccc(Nc2nc(OC3CCCC3)c3c(-c4ccc5nc(C)oc5c4)c[nH]c3n2)c(OC)c1
5400 nM: IC50 [1]
473 nM: IC50 [2]
inactive: viability, T/C [7] 69.5% | viability, T/C [8] 88.6% | viability, T/C [9] 83% | viability, T/C [10] 90.6% | viability, T/C [11] 86.1% | viability, T/C [12] 11.2% | viability, T/C [13] 48.2% | viability, T/C [14] 52.2% | viability, T/C [15] 52.3% | viability, T/C [16] 49.2% | viability, T/C [17] 39.2% | viability, T/C [18] 11.8% | viability, T/C [19] 45.1% | viability, T/C [20] 39.5% | viability, T/C [21] 47.9% | viability, T/C [22] 46.1% | viability, T/C [23] 35.9% | viability, T/C [25] 37.7% | viability, T/C [26] 34.4% | viability, T/C [27] 32.3% | viability, T/C [28] 33.2% | viability, T/C [29] 26.4% | viability, T/C [30] 9.54% | viability, T/C [31] 23.6% | viability, T/C [32] 23.8% | viability, T/C [33] 25.4% | viability, T/C [34] 21.6% | viability, T/C [35] 19.4% | viability, T/C [36] 5.35% | viability, T/C [37] 19.9% | viability, T/C [38] 19.8% | viability, T/C [39] 17.6% | viability, T/C [40] 20.3% | viability, T/C [41] 14.9% | viability, T/C [42] 5.66%
active: viability, T/C [24] 9.32%
< 31.6 nM: IC50 [3] | IC50 [4] | IC50 [5] | IC50 [6]
